Like-named read-outs stand apart in the source and are kept apart here.
What was measured:
[1] = tested on: G. lamblia; parameters: method as in Blaazer et al., 2018; Kunz et al., 2017b; settings: Fig. 2; ref Blaazer et al., 2018; Kunz et al., 2017b; cited from earlier work
[2] = tested on: GlPDE; parameters: method as in Blaazer et al., 2018; Kunz et al., 2017b; settings: Fig. 2; ref Blaazer et al., 2018; Kunz et al., 2017b; cited from earlier work
[3] = tested on: TbrPDEB1; parameters: method as in Blaazer et al., 2018; Kunz et al., 2017b; settings: Fig. 2; ref Blaazer et al., 2018; Kunz et al., 2017b; cited from earlier work
[4] = tested on: T.b. brucei; parameters: method as in Blaazer et al., 2018; Kunz et al., 2017b; settings: Fig. 2; ref Blaazer et al., 2018; Kunz et al., 2017b; cited from earlier work
[5] = tested on: Plasmodium falciparum; assay: Growth inhibition of P. falciparum; type: cell-based; settings: mean ± standard deviation, n ≥ 2, read-out: IC50 (µM) P.f.
Experimental: (§1) G. lamblia trophozoites (WBC6) were seeded into 96-well-plates in 0.2 mL […]-medium containing 10^3 trophozoites per well in the presence of the compounds dissolved in dimethyl sulfoxide (DMSO, final concentration 0.25%) or with DMSO as a solvent control and incubated for 72 h at 37 °C in an anaerobic chamber (80% N2, 10% H2, 10% CO2). Then, plates were centrifuged (2 min, 1000 rpm), medium was removed, and cells were washed once with PBS containing 1 g/L glucose. Then, PBS-glucose containing 10 mg/L resazurin was added, and plates were incubated for up to 5 h at 37 °C. Fluorescence reading (ex 530 nm/em 590 nm) was performed at various time points, and the linear increase of fluorescence was used as a marker for cell viability. IC50 values were calculated using the logit-log algorithm and are given as mean values with 95%-confidence intervals ([[…], 2019]). The assays for growth inhibition of T. b. brucei, T. cruzi, L. infantum, P. falciparum and MRC-5 (human lung fibroblasts MRC-5SV40) were previously described ([Blaazer et al., 2014]). PDE activity was determined exactly as described ([de Heuvel et al., 2021]; [Kunz et al., 2005], [2017b]). All assays were carried out in triplicates and no more than 20% substrate was hydrolyzed in all reactions. Compounds were dissolved in DMSO and the final DMSO concentration was 1% in all reaction mixes. Control reactions with DMSO alone were always included. Data were analyzed using the GraphPad Prism software package (v7.0, GraphPad, San Diego).

[6] = tested on: MRC-5 (human lung fibroblasts MRC-5SV40); assay: Cytotoxicity on MRC-5 cells; type: cell-based
Experimental: as §1

[7] = tested on: Trypanosoma brucei brucei; assay: Growth inhibition of T. b. brucei; type: cell-based; settings: mean ± standard deviation, n ≥ 2
Experimental: (§2) G. lamblia trophozoites (WBC6) were seeded into 96-well-plates in 0.2 mL Keister-medium containing 10^3 trophozoites per well in the presence of the compounds dissolved in dimethyl sulfoxide (DMSO, final concentration 0.25%) or with DMSO as a solvent control and incubated for 72 h at 37 °C in an anaerobic chamber (80% N2, 10% H2, 10% CO2). Then, plates were centrifuged (2 min, 1000 rpm), medium was removed, and cells were washed once with PBS containing 1 g/L glucose. Then, PBS-glucose containing 10 mg/L resazurin was added, and plates were incubated for up to 5 h at 37 °C. Fluorescence reading (ex 530 nm/em 590 nm) was performed at various time points, and the linear increase of fluorescence was used as a marker for cell viability. IC50 values were calculated using the logit-log algorithm and are given as mean values with 95%-confidence intervals ([Müller et al., 2020]; [Müller and Hemphill, 2013]; [Müller and Müller, 2019]). The assays for growth inhibition of T. b. brucei, T. cruzi, L. infantum, P. falciparum and MRC-5 (human lung fibroblasts MRC-5SV40) were previously described ([Blaazer et al., 2014]). PDE activity was determined exactly as described ([de Heuvel et al., 2021]; [Kunz et al., 2005], [2017b]). All assays were carried out in triplicates and no more than 20% substrate was hydrolyzed in all reactions. Compounds were dissolved in DMSO and the final DMSO concentration was 1% in all reaction mixes. Control reactions with DMSO alone were always included. Data were analyzed using the GraphPad Prism software package (v7.0, GraphPad, San Diego).

[8] = tested on: Leishmania infantum; assay: Growth inhibition of L. infantum; type: cell-based; settings: mean ± standard deviation, n ≥ 2
Experimental: as §2

[9] = target: GlPDE (aa588-1371) (Giardia lamblia, UniProt A0A644EZ75); assay: GlPDE activity inhibition; type: biochemical; settings: for Ki: mean ± standard deviation, n ≥ 2
Experimental: as §2
Figure S69. Representative dose-response curve of 11 against GlPDE (aa588-1371) enzyme (substrate concentration: 1 μM).

[10] = target: hPDE4B (Homo sapiens, UniProt Q07343); assay: Human PDE4 activity inhibition; type: biochemical; settings: for Ki: mean ± standard deviation, n ≥ 2
Experimental: as §2

[11] = tested on: Trypanosoma cruzi; assay: Growth inhibition of T. cruzi; type: cell-based; settings: mean ± standard deviation, n ≥ 2
Experimental: as §2

[12] = tested on: G. lamblia trophozoites (WBC6); assay: Growth inhibition of G. lamblia trophozoites (WBC6), resazurin viability read-out; type: cell-based, Giardia lamblia; settings: for IC50: Giardia duodenalis; for fold higher anti-Giardia activity than metronidazole: versus metronidazole IC50 = 0.8 μM; for fold decrease of anti-Giardia activity: compared with 18
Experimental: as §2
Figure S67. Representative drug susceptibility curves of G. lamblia WBC6. Trophozoites were grown anaerobically in the presence of various concentrations of 17 (red), 29 (blue) and the reference compound metronidazole (MET, black). After 72 h, growth of cells was monitored by a cell viability assay based on the reduction of resazurin to a pink fluorescent product. Measured fluorescence units were normalized to the DMSO control. Data points and error bars represent mean and standard error of 4 replicates.

[13] = MRC5, mean ± standard deviation, n ≥ 2, read-out: IC50 (nM) MRC-5
[14] = WBC6 trophozoites, 72 h, anaerobic, mean ± standard error (95% CI, logit-log), quadruplicates, read-out: IC50 (nM) G.l.

hPDE4B, sequence (Q07343 330-659 limits assumed): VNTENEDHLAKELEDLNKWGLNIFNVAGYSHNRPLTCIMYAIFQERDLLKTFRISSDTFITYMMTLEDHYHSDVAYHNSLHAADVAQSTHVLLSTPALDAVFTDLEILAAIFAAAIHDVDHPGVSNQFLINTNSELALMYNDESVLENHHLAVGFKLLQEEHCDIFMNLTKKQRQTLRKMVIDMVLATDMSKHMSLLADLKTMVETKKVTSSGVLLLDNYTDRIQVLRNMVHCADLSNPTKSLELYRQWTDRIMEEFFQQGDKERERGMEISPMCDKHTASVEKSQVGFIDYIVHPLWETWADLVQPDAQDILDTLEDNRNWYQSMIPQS

Row | Structure (SMILES) | IC50 [5] [µM] | IC50 [6, 13] [nM] | IC50 [7] [µM] | IC50 [8] [µM] | Ki [9] [µM] | Ki [10] [µM] | IC50 [11] [µM] | IC50 [12, 14] [nM] | other results
1 | COc1ccc(C2=NN(C3CCCCCC3)C(=O)[C@H]3CC=CC[C@@H]23)cc1OCCCCOc1ccc(-c2nn[nH]n2)cc1 [Compound 9] |  |  |  |  |  |  |  |  | IC50 [1]: 6.9 µM; IC50 [2]: 0.8 µM; IC50 [3]: […]; IC50 [4]: 0.08 µM
2 | COc1ccc(C2=NN(C3CCN(S(=O)(=O)c4cccc5cccnc45)CC3)C(=O)[C@@H]3CC=CC[C@H]23)cc1OC [Compound 10] |  |  |  |  |  |  |  |  | IC50 [1]: 1.5 µM; IC50 [2]: 3 µM; IC50 [3]: 0.03 µM; IC50 [4]: 0.42 µM
3 | COc1ccc(C2=NN(C3CCN(c4ccc5ncc([N+](=O)[O-])n5n4)CC3)C(=O)[C@@H]3CC=CC[C@H]23)cc1OC [Compound 11, (4aS,8aR)-4-(3,4-Dimethoxyphenyl)-2-(1-(3-nitroimidazo[1,2-b]pyridazin-6-yl)piperidin-4-yl)-4a,5,8,8a-tetrahydrophthalazin-1(2H)-one] | 6.3 ± 0.4 | > 64000 | 1 ± 0.7 | 27.4 ± 25.3 | 0.5 ± 0.3 | 0.00016 ± 2e-05 | 5.9 ± 4.5 | 0.5 ± 0.2 | fold more active against human PDE4 than against GlPDE ([10]; Ki hPDE4 versus Ki GlPDE): 3,000 fold; fold higher anti-Giardia activity than metronidazole [12]: > 1,000 fold
4 | COc1ccc(C2=NN(C3CCN(c4ccc5ncc([N+](=O)[O-])n5n4)CC3)C(=O)CC2)cc1OC [Compound 18, 6-(3,4-Dimethoxyphenyl)-2-(1-(3-nitroimidazo[1,2-b]pyridazin-6-yl)piperidin-4-yl)-4,5-dihydropyridazin-3(2H)-one] | 33.8 ± 37 | > 64000 | > 64 | 26.4 ± 8.6 | > 10 | 0.0032 ± 0.0004 | 50.9 ± 4.7 | 0.2 ± 0.1 | GlPDE Ki over IC50 for Giardia growth inhibition [9]: over 50,000 fold; fold decrease of hPDE4 affinity ([10]; compared with 11): 20 fold; IC50 ([12]; text value in pM, read-out: anti-Giardia IC50 on growth inhibition): ~0.2 nM; fold increase in anti-Giardia potency ([12]; compared with 11 (cyclohexene ring removed)): 2.5 fold
5 | COc1ccc(C2=NN(C3CCN(c4ccc5ncc([N+](=O)[O-])n5n4)CC3)C(=O)CC2)cc1Cl [Compound 19, 6-(3-Chloro-4-methoxyphenyl)-2-(1-(3-nitroimidazo[1,2-b]pyridazin-6-yl)piperidin-4-yl)-4,5-dihydropyridazin-3(2H)-one] | 7.2 ± 0.4 | > 64000 | 22.2 ± 15.9 | 28.9 ± 31 | > 1000 | 0.2 ± 0.05 | 5.4 ± 4.1 | 19 ± 3.2 | fold decrease of affinity for hPDE4B ([10]; compared to 18): 60 fold; fold decrease of anti-Giardia activity [12]: 100 fold; fold higher anti-Giardia activity than metronidazole [12]: 40 fold
6 | COc1ccc(C2=NN(C3CCN(c4ccc5nccn5n4)CC3)C(=O)CC2)cc1OC [Compound 20, 6-(3,4-Dimethoxyphenyl)-2-(1-(imidazo[1,2-b]pyridazin-6-yl)piperidin-4-yl)-4,5-dihydropyridazin-3(2H)-one] | > 64 | > 64000 | > 64 | > 64 | > 1000 | 0.005 ± 0.001 | > 64 | 930 ± 100 | GlPDE inhibition (in words) [9]: no GlPDE inhibition; fold decrease of anti-Giardia activity [12]: 4,500 fold
7 | O=[N+]([O-])c1cnc2ccc(N3CCC(c4ccccc4)CC3)nn12 [Compound 26, 3-Nitro-6-(4-phenylpiperidin-1-yl)imidazo[1,2-b]pyridazine] | > 64 | > 64000 | > 64 | > 64 |  |  | > 64 | 8.2 ± 1 | 
8 | O=[N+]([O-])c1cnc2ccc(N3CCN(c4ccccc4)CC3)nn12 [Compound 27, 3-Nitro-6-(4-phenylpiperazin-1-yl)imidazo[1,2-b]pyridazine] | > 64 | > 64000 | > 64 | 35.3 ± 4 |  |  | > 64 | 0.7 ± 0.1 | 
9 | O=[N+]([O-])c1cnc2ccc(N3CCC(Cc4ccccc4)CC3)nn12 [Compound 28, 6-(4-Benzylpiperidin-1-yl)-3-nitroimidazo[1,2-b]pyridazine] | 23.4 ± 7.2 | 7960 | 27.6 ± 4.2 | > 64 |  |  | 8.6 ± 0.2 | 0.5 ± 0.1 | IC50 ([6]; MRC5, Table S1, mean ± standard deviation, n ≥ 2, read-out: IC50 (µM) MRC-5): 8000 ± 200 nM
10 | O=C(c1ccccc1)C1CCN(c2ccc3ncc([N+](=O)[O-])n3n2)CC1 [Compound 29, (1-(3-Nitroimidazo[1,2-b]pyridazin-6-yl)piperidin-4-yl)(phenyl)methanone] | > 64 | > 64000 | 34.4 ± 2.4 | 11.7 ± 1.4 |  |  | 18.9 ± 13.9 | 1.1 ± 0.2 | 
11 | COc1ccc(CN(C)c2ccc3ncc([N+](=O)[O-])n3n2)cc1 [Compound 30, N-(4-Methoxybenzyl)-N-methyl-3-nitroimidazo[1,2-b]pyridazin-6-amine] | > 64 | > 64000 | > 64 | 46.9 ± 5.5 |  |  | 29.7 ± 5.7 | 10.3 ± 1.5 | 
12 | c1cn2nc(N3CCCCC3)ccc2n1 [Compound 31, 6-(Piperidin-1-yl)imidazo[1,2-b]pyridazine] | > 64 | > 64000 | > 64 | > 64 |  |  | 38.4 ± 3.2 | > 10000 | anti-Giardia activity (in words) [12]: inactive; difference in inhibiting growth of G. lamblia ([12]; 31 (non-nitro analogue) versus 23): > 2,500 folds

Reference: paper PMC9213561, “3-nitroimidazo[1,2-b]pyridazine as a novel scaffold for antiparasitics with sub-nanomolar anti-Giardia lamblia activity” (International Journal for Parasitology: Drugs and Drug …, 2022)
